Source: patent publication US12601016B2, “Genetically encoded fluorescent indicators under optogenetic control and uses thereof” (LUMISTAR BIOTECHNOLOGY, INC., priority 2018, dated 2026)

How the values were obtained:
iPSC-CMs [1] = experiment: Pharmacological stimulation by caffeine in iPSC-CMs imaged using NIR-GECO1 or NIR-GECO2; assay type: cell-based, human; details: 10 mM caffeine
Description: (§1) Representative time courses of Ca^2+ influx influenced by pharmacological stimulations of caffeine (10 mM). Spontaneous calcium oscillations were also able to be observed before applications of caffeine.
(§2) With reference to FIG. 8, NIR-GECO1 expressed in HL-1 (A) and iPSC-CMs (B), and NIR-GECO2 expressed in iPSC-CMs (C) were tested for pharmacological stimulation.
Human iPSC-derived cardiomyocytes (Human iPSC Cardiomyocytes[…]|ax2505) were purchased from Axol Bioscience. The cells were plated in two wells of a 6-well plate and cultured for eight days in Axol's Cardiomyocyte Maintenance Medium to 80-90% confluency. Cells then were re-plated on Fibronectin/Gelatin (0.5%/0.1%) coated glass bottom dishes for final observation with Tyrode's buffer. […]
(§3) An inverted microscope (D1, Zeiss) equipped with a 63× objective lens (NA 1.4, Zeiss) and a multiwavelength LED light source (pE-4000, CoolLED) was used. […] The filter set (T685lpxr dichroic mirror, and ET720/60 emission filter) was used to stimulate ChR2 and to acquire fluorescence imaging of NIR-GECO1. […] Fluorescence signals were recorded by a CMOS camera (ORCA-Flash4.0LT, HAMAMATSU) and controlled by a HC Image software.

HL-1 cells = experiment: Pharmacological stimulation by caffeine in HL-1 cells imaged using NIR-GECO1; assay type: cell-based, mouse; details: 10 mM caffeine
Description: as §1
NIR-GECO1 and NIR-GECO2 were then tested for its performance in cardiovascular research. In one aspect of the present invention, a cell culture of stable immortalized cell lines, known as the HL-1 cell line, derived from mouse atrial cardiomyocytes is used as a model.
as §2
To culture the HL-1 cell line, flasks were pre-coated with gelatin/fibronectin at 37° C. overnight. […]
as §3

[2] = system: voltage-gated L-type calcium channels; experiment: L-type calcium channel inhibitors applied to iPSC-CMs, optically paced Ca^2+ transients imaged using K-GECO1 with ChR2; assay type: cell-based, human; details: 1 μM; 470-nm pulses of 40 ms at 0.3 Hz
From the text: (A) A representative time course of spontaneous Ca^2+ oscillations in iPSC-CMs as imaged using K-GECO1. (B) Photoactivation of R-GECO1 and (C) K-GECO1 in iPSC-CMs. Cells with and without spontaneous activities are shown in trace (i) and (ii), respectively. (D) Combined use of K-GECO1 and channelrhodopsin-2 (ChR2) in iPSC-CMs for all-optical control and observation of Ca^2+ transients. Illumination with 470-nm light at a pulse duration of 150 ms for optical control is indicated by arrowheads. (E) Small molecular inhibitors of the voltage-gated L-type calcium channels were applied to iPSC-CMs. iPSC-CMs were plated out at low density and exposed to clinically relevant doses of 100 nM and 1 μM for nifedipine and verapamil, respectively. Traces were obtained with optical stimulation by 470-nm light at a pulse duration of 40 ms at 0.3 Hz. […]
as §3, with “set (Q565lp” for “set (T685lpxr”, “and HQ620/60” for “and ET720/60”, “of K-GECO1 or R-GECO1.” for “of NIR-GECO1.”, “recorded using” for “recorded by”, “HAMAMATSU)” for “HAMAMATSU) and”

[3] = Ca^2+ titration of purified NIR-GECO variants (EGTA-buffered Ca^2+ solutions); assay type: binding; details: Ca^2+ titration of purified protein, 25° C.; read-out: apparent Kd
From the text: (§4) NIR-GECO1 is a near infrared indicator and is engineered from a naturally-monomeric infrared fluorescent proteins (mIFP). NIR-GECO1 has absorbance and emission peaks at 678 and 704 nm, respectively, and undergoes a 90% decrease in fluorescence intensity upon binding Ca^2+, serving as an inverse response indicator contrast to K-GECO1, as shown in FIG. 2B.
(§5) To purify NIR-GECO variants for in vitro characterization, the gene encoding variants of interest with a poly-histidine tag on the C terminus, was expressed from the pBAD vector. Bacteria were lysed with a cell disruptor (Constant Systems Ltd) and then centrifuged at 15,000 g for 30 min, and proteins were purified by Ni-NTA affinity chromatography (Agarose Bead Technologies). The buffer was typically exchanged to 10 mM MOPS, 100 mM KCl (pH 7.2) with centrifugal concentrators (GE Healthcare Life Sciences).
Ca^2+ titrations were carried out using EGTA-buffered Ca^2+ solutions (Calcium Calibration Buffer Kit no. 1, Life Technologies). We prepared buffers by mixing a CaEGTA buffer (30 mM MOPS, 100 mM KCl, 10 mM EGTA, 10 mM CaCl2) and an EGTA buffer (30 mM MOPS, 100 mM KCl, 10 mM EGTA) to give free Ca^2+ concentrations ranging from 0 to 39 μM at 25° C. Fluorescence intensities were plotted against Ca^2+ concentrations and fitted by a sigmoidal binding function to determine the Hill coefficient and Kd.

iPSC-CMs [4] = experiment: Blue-light photoactivation testing of GECIs expressed in iPSC-CMs; assay type: cell-based, human; details: 0.19 W/cm^2 of 470-nm LED light
From the text: (A) A representative time course of spontaneous Ca^2+ oscillations in iPSC-CMs as imaged using K-GECO1. (B) Photoactivation of R-GECO1 and (C) K-GECO1 in iPSC-CMs. Cells with and without spontaneous activities are shown in trace (i) and (ii), respectively. (D) Combined use of K-GECO1 and channelrhodopsin-2 (ChR2) in iPSC-CMs for all-optical control and observation of Ca^2+ transients. Illumination with 470-nm light at a pulse duration of 150 ms for optical control is indicated by arrowheads. (E) Small molecular inhibitors of the voltage-gated L-type calcium channels were applied to iPSC-CMs. iPSC-CMs were plated out at low density and exposed to clinically relevant doses of 100 nM and 1 μM for nifedipine and verapamil, respectively. Traces were obtained with optical stimulation by 470-nm light at a pulse duration of 40 ms at 0.3 Hz.
FIG. 7. Examination of photoactivation effects of NIR-GECO1 and NIR-GECO2 expressed in iPSC-CMs. […]
as §3, with “set (Q565lp” for “set (T685lpxr”, “and HQ620/60” for “and ET720/60”, “of K-GECO1 or R-GECO1.” for “of NIR-GECO1.”, “recorded using” for “recorded by”, “HAMAMATSU)” for “HAMAMATSU) and”, “software. […]” for “software.”

[5] = In vitro fluorescence characterization of purified NIR-GECO1; assay type: physicochemical; details: inverse response indicator
From the text: as §4
as §5, with “The buffer was typically exchanged to 10 mM MOPS, 100 mM KCl (pH 7.2) with centrifugal concentrators (GE Healthcare Life Sciences).” left out
The extinction coefficients were determined by comparing the absorbance value at 678 nm to the absorbance value at the 391 nm and assuming an extinction coefficient of 39,900 M^− cm^− at 391 nm. […] The concentration of NIR-GECO variants (Ca^2+-free), NIR-GECO variants (Ca^2+-saturated) and mIFP was adjusted to have absorbance of 0.2-0.6 at 650 nm. A series of dilutions, with absorbance ranging from 0.01 to 0.05, were prepared, and integrated emission intensity versus absorbance was plotted. Quantum yields were determined from the slopes (S) of each line using the equation Φprotein=Φstandard*(Sprotein/Sstandard).

For `Cn1c(=O)c2c(ncn2C)n(C)c1=O` [caffeine], which “fluorescence intensity change (inverse indicator: increase in cytosolic Ca^2+ concentration)” value (iPSC-CMs [1]) is on record?
Its value is “significant decreases in fluorescence intensities”.

And the “fluorescence intensity change (inverse indicator: increase in cytosolic Ca^2+ concentration)” value (HL-1 cells)?
The value was “significant decreases in fluorescence intensities”.

Which “effect on triggered intensity change as imaged using K-GECO1” value [2] does the source give for `COc1ccc(CCN(C)CCCC(C#N)(c2ccc(OC)c(OC)c2)C(C)C)cc1OC` (centres unmarked) [verapamil] here?
Its value is “suppress the triggered intensity change”.

What does the source list for “NIR-GECO1: near infrared genetically encoded Ca^2+ indicator engineered from monomeric infrared fluorescent protein mIFP (SEQ ID NO. 6)”?
Kd [3]: 215 nM; photoactivation: changes in fluorescence intensity under illumination (iPSC-CMs [4]; pulse duration 40 ms): no significant changes in fluorescence intensity; decrease in fluorescence intensity upon binding Ca^2+ [5]: 90%

Which results are given for “NIR-GECO2: near infrared Ca^2+ indicator sharing 99% sequence identity with NIR-GECO1 (SEQ ID NO. 7)”?
Kd [3]: 480 nM; photoactivation: changes in fluorescence intensity under illumination (iPSC-CMs [4]; pulse duration 100 ms): no significant changes in fluorescence intensity
